In publication PMC12040969, “Design, synthesis, in silico studies, and apoptotic antiproliferative activity of novel thiazole-2-acetamide derivatives as tubulin polymerization inhibitors” (Frontiers in Chemistry, 2025):
Where “and” joins values, the source holds several entries; their conditions need not be identical. Equal entries are not always repeated.

Assays:
tubulin = experiment: Tubulin polymerization inhibition assay (Cytoskeleton kit); settings: for Tub %inh: 30 min, YB-EGY run; for Tub K.Activity: EC = 120, YB-EGY run; for IC50: read-out: Tubulin inhibition IC50 ± SEM, triplicate for each tested concentration;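 as to all read-outs here: Cell-free tubulin polymerization read by fluorescent reporter enhancement over a 30 min reaction, with the compound-free kit control taken as 100% activity and inhibition relative to it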
[1] = system: Bax in MDAMB-231 cancer cell line; experiment: Bax level assay; assay type: cell-based, human; settings: MDAMB-231 cells; for Bax Fold change: relative to untreated control
Text: (§1) […]. Supplementary Appendix A provides more information.

prostatic - PC-3 = experiment: Antiproliferative assay (MTT) PC-3; settings: for IC50: read-out: Antiproliferative activity IC50 ± SEM (µM) PC-3, PC-3, MTT
[2] = system: Caspase-3 in MDAMB-231 cancer cell line; experiment: Caspase-3 activation assay; assay type: cell-based, human; settings: MDAMB-231 cells; for Caspase-3 Fold change: relative to untreated control
Text: as §1

[3] = Cell viability assay (MTT), normal cells; assay type: cell-based; settings: human, MCF-10A normal mammary gland epithelial cells, four-day incubation
breast - MCF-7 = experiment: Antiproliferative assay (MTT) MCF-7; settings: for IC50: read-out: Antiproliferative activity IC50 ± SEM (µM) MCF-7, MCF-7, MTT
[4] = system: Bcl-2 in MDAMB-231 cancer cell line; experiment: Bcl-2 level assay; assay type: cell-based, human; settings: MDAMB-231 cells; for Bcl-2 Fold reduction: relative to untreated control
Text: as §1

colon - HCT-116 = experiment: Antiproliferative assay (MTT) HCT-116; settings: for IC50: read-out: Antiproliferative activity IC50 ± SEM (µM) HCT-116, HCT-116, MTT
[5] = system: Caspase-9 in MDAMB-231 cancer cell line; experiment: Caspase-9 activation assay; assay type: cell-based, human; settings: MDAMB-231 cells; for Caspase-9 Fold change: relative to untreated control
Protocol: […]. Compound 10o was the least efficient derivative as caspase-9 activators (0.90 ng/mL).
as §1

pancreatic - MDAMB-231 = experiment: Antiproliferative assay (MTT) MDAMB-231; settings: for IC50: read-out: Antiproliferative activity IC50 ± SEM (µM) MDAMB-231, MDAMB-231, MTT
- MDAMB-231 = experiment: Antiproliferative assay (MTT) MDAMB-231
[6] = system: four human cancer cell lines (HCT-116, PC-3, MCF-7, MDAMB-231); experiment: Antiproliferative assay, mean of four cell lines (GI50); settings: for IC50: Homo sapiens, read-out: GI50 (average IC50)

## Cc1nc(SCC(=O)Nc2nc(-c3ccccc3)cs2)sc1C(=O)/C=C/c1ccccc1 [Compound 10a, (E)-2-((5-cinnamoyl-4-methylthiazol-2-yl)thio)-N-(4-phenylthiazol-2-yl)acetamide]
tubulin; conc 0.1 (unit not given)
  Tub %inh: 16.5%
  Tub K.Activity: 100.18
tubulin; conc 1 (unit not given)
  Tub %inh: 39.4%
  Tub K.Activity: 72.71
tubulin; conc 10 (unit not given)
  Tub %inh: 60.5%
  Tub K.Activity: 47.391
tubulin; conc 50 (unit not given)
  Tub %inh: 78.9%
  Tub K.Activity: 25.374
tubulin; conc 100 (unit not given)
  Tub %inh: 92.7%
  Tub K.Activity: 8.7594
[1]
  Bax Conc: 305 pg/mL and 305 ± 8 pg/mL
Prostatic - PC-3; PC-3 prostate cancer cell line
  Higher efficacy than sorafenib, PC-3: 1.7 fold
Prostatic - PC-3
  IC50: 7 ± 0.6 µM
[2]
  Caspase-3 Conc: 625 ± 5 pg/mL
[3]
  viability at 96 h, 50 µM: 87%
Breast - MCF-7
  IC50: 4 ± 0.2 µM
[4]
  Bcl-2 Conc: 0.90 ng/mL
Colon - HCT-116
  IC50: 8 ± 0.7 µM
[5]
  Caspase-9 Conc: 1.60 ng/mL and 1.60 ± 0.10 ng/mL

## COc1ccc(/C=C/C(=O)c2sc(SCC(=O)Nc3nc(-c4ccc(C)cc4)cs3)nc2C)cc1 [Compound 10o, (E)-2-((5-(3-(4-methoxyphenyl)acryloyl)-4-methylthiazol-2-yl)thio)-N-(4-(p-tolyl)thiazol-2-yl)acetamide]
tubulin; conc 0.1 (unit not given)
  Tub %inh: 16%
  Tub K.Activity: 100.77
tubulin; conc 1 (unit not given)
  Tub %inh: 34%
  Tub K.Activity: 79.173
tubulin; conc 10 (unit not given)
  Tub %inh: 54.8%
  Tub K.Activity: 54.254
tubulin; conc 50 (unit not given)
  Tub %inh: 76.2%
  Tub K.Activity: 28.504
tubulin; conc 100 (unit not given)
  Tub %inh: 90.9%
  Tub K.Activity: 10.964
tubulin
  IC50: 3.62 ± 0.11 µM
[1]
  Bax Conc: 285 pg/mL and 285 ± 7 pg/mL
  Bax Fold change: 35 fold
Prostatic - PC-3; PC-3, 1.56 µM
  Average of Relative viability of cells (%): 99.3%
Prostatic - PC-3; PC-3, 3.125 µM
  Average of Relative viability of cells (%): 87.4%
Prostatic - PC-3; PC-3, 6.25 µM
  Average of Relative viability of cells (%): 61.1%
Prostatic - PC-3; PC-3, 12.5 µM
  Average of Relative viability of cells (%): 48.2%
Prostatic - PC-3; PC-3, 25 µM
  Average of Relative viability of cells (%): 31.6%
Prostatic - PC-3; PC-3, 50 µM
  Average of Relative viability of cells (%): 23.7%
Prostatic - PC-3; PC-3, 100 µM
  Average of Relative viability of cells (%): 14.3%
Prostatic - PC-3
  IC50: 13 ± 1 µM
Pancreatic - MDAMB-231; MDAMB-231 cancer cell line
  More potency than sorafenib, MDAMB-231: 2.7 fold
Pancreatic - MDAMB-231
  IC50: 3 ± 0.1 µM
- MDAMB-231; MDAMB-231, 1.56 µM
  Average of Relative viability of cells (%): 61.2%
- MDAMB-231; MDAMB-231, 3.125 µM
  Average of Relative viability of cells (%): 47.1%
- MDAMB-231; MDAMB-231, 6.25 µM
  Average of Relative viability of cells (%): 37.3%
- MDAMB-231; MDAMB-231, 12.5 µM
  Average of Relative viability of cells (%): 26.7%
- MDAMB-231; MDAMB-231, 25 µM
  Average of Relative viability of cells (%): 17.6%
- MDAMB-231; MDAMB-231, 50 µM
  Average of Relative viability of cells (%): 10.2%
- MDAMB-231; MDAMB-231, 100 µM
  Average of Relative viability of cells (%): 4.5%
[2]
  Caspase-3 Conc: 605 ± 5 pg/mL
  Caspase-3 Fold change: 9 fold
[3]
  viability at 96 h, 50 µM: 90%
Breast - MCF-7; MCF-7, 1.56 µM
  Average of Relative viability of cells (%): 73.4%
Breast - MCF-7; MCF-7, 3.125 µM
  Average of Relative viability of cells (%): 61.6%
Breast - MCF-7; MCF-7, 6.25 µM
  Average of Relative viability of cells (%): 45.1%
Breast - MCF-7; MCF-7, 12.5 µM
  Average of Relative viability of cells (%): 29.7%
Breast - MCF-7; MCF-7, 25 µM
  Average of Relative viability of cells (%): 20.3%
Breast - MCF-7; MCF-7, 50 µM
  Average of Relative viability of cells (%): 11.9%
Breast - MCF-7; MCF-7, 100 µM
  Average of Relative viability of cells (%): 7.2%
Breast - MCF-7
  IC50: 5 ± 0.4 µM
[4]
  Bcl-2 Conc: 1.05 ng/mL
  Bcl-2 Fold reduction: 5 fold
Colon - HCT-116; HCT-116, 1.56 µM
  Average of Relative viability of cells (%): 89.1%
Colon - HCT-116; HCT-116, 3.125 µM
  Average of Relative viability of cells (%): 66.5%
Colon - HCT-116; HCT-116, 6.25 µM
  Average of Relative viability of cells (%): 51.6%
Colon - HCT-116; HCT-116, 12.5 µM
  Average of Relative viability of cells (%): 24.5%
Colon - HCT-116; HCT-116, 25 µM
  Average of Relative viability of cells (%): 22.7%
Colon - HCT-116; HCT-116, 50 µM
  Average of Relative viability of cells (%): 15.2%
Colon - HCT-116; HCT-116, 100 µM
  Average of Relative viability of cells (%): 7.8%
Colon - HCT-116
  IC50: 6 ± 0.4 µM
[5]
  Caspase-9 Conc: 0.90 ng/mL and 0.90 ± 0.10 ng/mL
  Caspase-9 Fold change: 9 fold
[6]
  IC50: 7 µM

## Cc1nc(SCC(=O)Nc2nccs2)sc1C(=O)/C=C/c1ccc(F)cc1 [Compound 13c, (E)-2-((5-(3-(4-fluorophenyl)acryloyl)-4-methylthiazol-2-yl)thio)-N-(thiazol-2-yl)acetamide]
tubulin; conc 0.1 (unit not given)
  Tub %inh: 6.12%
  Tub K.Activity: 112.66
tubulin; conc 1 (unit not given)
  Tub %inh: 27.4%
  Tub K.Activity: 87.115
tubulin; conc 10 (unit not given)
  Tub %inh: 48.8%
  Tub K.Activity: 61.436
tubulin; conc 50 (unit not given)
  Tub %inh: 71.2%
  Tub K.Activity: 34.549
tubulin; conc 100 (unit not given)
  Tub %inh: 90.8%
  Tub K.Activity: 10.995
tubulin
  IC50: 6.05 ± 0.18 µM
Prostatic - PC-3; PC-3, 1.56 µM
  Average of Relative viability of cells (%): 100%
Prostatic - PC-3; PC-3, 3.125 µM
  Average of Relative viability of cells (%): 99.1%
Prostatic - PC-3; PC-3, 6.25 µM
  Average of Relative viability of cells (%): 87.9%
Prostatic - PC-3; PC-3, 12.5 µM
  Average of Relative viability of cells (%): 67.7%
Prostatic - PC-3; PC-3, 25 µM
  Average of Relative viability of cells (%): 54.6%
Prostatic - PC-3; PC-3, 50 µM
  Average of Relative viability of cells (%): 42.1%
Prostatic - PC-3; PC-3, 100 µM
  Average of Relative viability of cells (%): 28.8%
Prostatic - PC-3
  IC50: 34 ± 2.1 µM
Pancreatic - MDAMB-231
  IC50: 23 ± 1.7 µM
- MDAMB-231; MDAMB-231, 1.56 µM
  Average of Relative viability of cells (%): 100%
- MDAMB-231; MDAMB-231, 3.125 µM
  Average of Relative viability of cells (%): 93.3%
- MDAMB-231; MDAMB-231, 6.25 µM
  Average of Relative viability of cells (%): 71.6%
- MDAMB-231; MDAMB-231, 12.5 µM
  Average of Relative viability of cells (%): 54.8%
- MDAMB-231; MDAMB-231, 25 µM
  Average of Relative viability of cells (%): 50.1%
- MDAMB-231; MDAMB-231, 50 µM
  Average of Relative viability of cells (%): 38.9%
- MDAMB-231; MDAMB-231, 100 µM
  Average of Relative viability of cells (%): 19.6%
[3]
  viability at 96 h, 50 µM: 86%
Breast - MCF-7; MCF-7, 1.56 µM
  Average of Relative viability of cells (%): 100%
Breast - MCF-7; MCF-7, 3.125 µM
  Average of Relative viability of cells (%): 96.3%
Breast - MCF-7; MCF-7, 6.25 µM
  Average of Relative viability of cells (%): 83.0%
Breast - MCF-7; MCF-7, 12.5 µM
  Average of Relative viability of cells (%): 68.1%
Breast - MCF-7; MCF-7, 25 µM
  Average of Relative viability of cells (%): 51.6%
Breast - MCF-7; MCF-7, 50 µM
  Average of Relative viability of cells (%): 36.7%
Breast - MCF-7; MCF-7, 100 µM
  Average of Relative viability of cells (%): 21.7%
Breast - MCF-7
  IC50: 28 ± 1.8 µM
Colon - HCT-116; HCT-116, 1.56 µM
  Average of Relative viability of cells (%): 100%
Colon - HCT-116; HCT-116, 3.125 µM
  Average of Relative viability of cells (%): 92.6%
Colon - HCT-116; HCT-116, 6.25 µM
  Average of Relative viability of cells (%): 73.1%
Colon - HCT-116; HCT-116, 12.5 µM
  Average of Relative viability of cells (%): 51.3%
Colon - HCT-116; HCT-116, 25 µM
  Average of Relative viability of cells (%): 42.2%
Colon - HCT-116; HCT-116, 50 µM
  Average of Relative viability of cells (%): 29.9%
Colon - HCT-116; HCT-116, 100 µM
  Average of Relative viability of cells (%): 16.1%
Colon - HCT-116
  IC50: 18 ± 1.4 µM
[6]; GI50 ratio
  Reduced potency compared to doxorubicin (GI50): at least 2.5 fold
  Reduced potency compared to sorafenib (GI50): ≥ 1.5 fold
[6]
  IC50: 26 µM

## CN[C@@H]1C[C@H]2O[C@@](C)([C@@H]1OC)n1c3ccccc3c3c4c(c5c6ccccc6n2c5c31)C(=O)NC4 [Staurosporine, reference compound]
[1]
  Bax Conc: 280 ± 7 pg/mL
  Bax Fold change: 35 fold
[1]; listed as staurosporine
  Bax Conc: 280 pg/mL
[2]
  Caspase-3 Conc: 510 ± 4 pg/mL
  Caspase-3 Fold change: 8 fold
[4]
  Bcl-2 Conc: 1.10 ng/mL
  Bcl-2 Fold reduction: 5 fold
[5]
  Caspase-9 Conc: 1.30 ± 0.10 ng/mL
  Caspase-9 Fold change: 13 fold
[5]; listed as staurosporine
  Caspase-9 Conc: 1.30 ng/mL
